Data set [1] can be described thus: LC-MS quantification of aTC in fecal pellets. Format: in vivo, mice. The procedure: Germ-free Swiss Webster mice were maintained in flexible plastic gnotobiotic isolators with a 12-hour light/dark cycle and provided a standard, autoclaved mouse chow (5K67 LabDiet, Purina) ad libitum and autoclaved water for the duration of the experiment. Filter-sterilized aTC was added to drinking water stored in red-tinted bottles (Ancare, #PC9RH8.5RD) to inhibit degradation by light. Mice were co-housed for the duration of the experiments. Cage changes were always carried out when aTC was withdrawn from drinking water. Fecal and luminal samples were collected and processed in 2.0 mL screw cap tubes (Axygen Scientific; #SCT-200-C). Germ free status was monitored by 16S rDNA-targeted PCR of fecal DNA and anaerobic and aerobic culture of fecal samples.
Groups of 6 germ-free Swiss Webster mice were orally gavaged with 1×10^9 CFU of the desired B. thetaiotaomicron strain. Fecal samples (˜100-200 mg) were collected daily for 12 days. aTC (100 μg/mL) was administered in drinking water for 12 hours after fecal collection on day 1. Fecal samples were homogenized in 1 mL of 1× tris-buffered saline (TBS) with a single 5 mm stainless steel bead using a bead beater (BioSpec Products) at 26° C. for 1 minute on the high setting, followed by vortexing at top speed for 8 minutes. Samples were then centrifuged at 500×g for 1 minute to pellet fibrous and insoluble matter. Bacterial cells from 600 μL of the supernatant was isolated through centrifugation at 21,130×g for 3 minutes, resuspended in 50 μL of Sialidase Reaction buffer (50 mM Tris-HCl pH 7.0, 5 mM EDTA) containing 1× BugBuster, and stored at −80° C. for ex vivo sialidase measurements (described below).
To the remaining material, 400 mg of 0.1 mm glass beads was added and further homogenized by bead beating for 2 minutes. Insoluble material was pelleted by centrifuging the sample for 3 minutes at 21,130×g, and 20 μL of the supernatant was used for mass spectrometry measurements of sialic acid and aTC by liquid chromatography coupled tandem mass spectrometry (QqQ) and mass spectrometry (qTOF), respectively.
For aTC measurements, 5 μL of internal standard solution (0.25 μM sulfamethoxazole and caffeine in H2O) were added to each sample (20 μL) and further processed as described above. Dried samples were re-suspended in 4 μL methanol and diluted in 12 μL H2O. Chromatographic separation was performed on a C18 Kinetex Evo column (Phenomenex, 100 mm×2.1 mm, 1.7 μm particle size) using mobile phase A: H2O, 0.1% formic acid and B: methanol, 0.1% formic acid at 45° C. 10 μL of sample were injected at 100% A and 0.4 mL/min flow followed by a linear gradient to 95% B over 5.5 min and 0.4 mL/min flow leading to aTC, caffeine and sulfamethoxazole elution at 3.0, 1.9, 2.1 min, respectively. The qTOF was operated in positive scanning mode (50-1000 m/z) and the following source parameters: VCap: 3500 V, nozzle voltage: 2000 V, gas temp: 225° C.; drying gas 13 L/min; nebulizer: 20 psig; sheath gas temp 225° C.; sheath gas flow 12 L/min. Online mass calibration was performed using a second ionization source and a constant flow (5 μL/min) of reference solution (121.0509 and 922.0098 m/z). Compounds were identified based on the retention time of chemical standards and their accurate mass (tolerance 20 ppm). The MassHunter Quantitative Analysis Software (Agilent, version 7.0) was used for peak integration and quantification was based on calibration curves using chemical standards and the signal intensity of the internal standard spiked into each sample.

In data set [2] the test system is Bt::tetR P1TDP^GH023-NanoLuc. In kind it is in vivo, mice. The procedure:
8-10 week old SPF Rag^−/− mice (Jackson Laboratories) (n=7) were colonized by oral gavage with 1×10^9 CFU of B. thetaiotaomicron TetR-P1TDP^GH023-NanoLuc. Fecal pellets were collected daily after gavage and processed as described above. The supernatant was used for CFU determination by plating dilutions on BHI-blood agar plates containing gentamicin and erythromycin, and 500 μL was used for luminescence measurements (described below).
The 500 μL collected from the resuspended fecal supernatant was centrifuged at 21,130×g for 3 minutes to pellet bacterial cells, which were then resuspended in 50 μL 1× BugBuster (Novagen) in 1×PBS and lysed by one round of freeze-thaw and 10 minutes of nutation at 26° C. Samples were centrifuged at 21,130×g for 10 minutes at 4° C., and 10 μL of the supernatant was mixed with an equal volume of NanoLuc Reaction Buffer to induce luminescence production. Luminescence was measured after a 5 minute incubation at 26° C. on a plate reader (BioTek Synergy H1) with an integration time of 1 second at a gain setting of 100. Luminescence values were normalized to colony forming units (CFUs) determined by dilution plating of the resuspended fecal supernatant on BHI-blood agar plates containing gentamicin and erythromycin.

[3] abbreviates: 12 hours of aTC (100 μg/mL) via drinking water.

This is an account of results in patent US11549115B2, “Compositions and methods for regulated gene expression” (YALE UNIVERSITY, priority 2017, dated 2023).

As a reminder, the half-life is how long it takes for the measured level to halve. `Cc1c2c(c(O)c3c(O)cccc13)C(=O)[C@]1(O)C(=O)C(C(N)=O)=C(O)[C@@H](N(C)C)[C@@H]1C2` [aTC, Anhydrotetracycline]: in data set [1] (setting [3]), the “time to spike of inducer levels in fecal pellets” value is at most 12 h and the “time to undetectable after the spike” value is 24 h. The half-life in data set [1] (Swiss Webster, mouse, faeces, oral, fecal pellets, gnotobiotic mice with wildtype B. thetaiotaomicron, 100 μg/mL in drinking water for 4 days, read-out: half-life in vivo (converted)) is 19 h. The “degradation by B. thetaiotaomicron in vivo” value in data set [1] (comparison with germfree mice) is listed as “does not degrade aTC in vivo”. In data set [1] (fecal pellets, 100 μg/mL), the “time to detection after addition to drinking water” value was at most 24 h. Also, the “time to undetectable after removal from the water” value in data set [1] (fecal pellets, 100 μg/mL for 4 days) was 6 days. Further, the “return of fecal luminescence to baseline after aTC removal” value in data set [2] (SPF Rag-/- mice) is listed as 3 days. The “increase in fecal luminescence” value in data set [2] (SPF Rag-/- mice, aTC in drinking water for 48 hours) is given as 4,800 fold. Also, the “effect on stability of B. thetaiotaomicron in a complete murine microbiota” value in data set [2] (mouse, in vivo) is listed as “does not affect the stability of B. thetaiotaomicron”.
